Active and inactive are the calls of the source. The calls are words filed in the database; no cut-off is given here.
Key:
[1] = target: Alpha-1D adrenergic receptor (Homo sapiens, UniProt P25100); experiment: Binding affinity to adrenergic alpha1D receptor (unknown origin) by PDSP assay
Histamine H2 receptor = Histamine H2 receptor (Homo sapiens, UniProt P25021); experiment: Binding affinity to H2 histamine receptor (unknown origin) by PDSP assay
[2] = target: Muscarinic acetylcholine receptor M1 (Homo sapiens, UniProt P11229)
Description: Binding affinity to M1 receptor (unknown origin) by PDSP assay

[3] = target: Muscarinic acetylcholine receptor M3 (Homo sapiens, UniProt P20309)
Description: Binding affinity to M3 receptor (unknown origin) by PDSP assay

[4] = target: T1, 5-hydroxytryptamine receptor 2A (Homo sapiens, UniProt P28223); experiment: Agonist activity at 5-HT2A receptor (unknown origin) relative to serotonin; conditions: concentration not given here
D(2) dopamine receptor [5] = target: T2, D(2) dopamine receptor (Homo sapiens, UniProt P14416); experiment: Agonist activity at dopamine D2 receptor (unknown origin) relative to serotonin; conditions: concentration not given here
[6] = target: T1, 5-hydroxytryptamine receptor 2A; experiment: Antagonist activity at 5-HT2A receptor (unknown origin) relative to ketanserin; conditions: concentration not given here
D(2) dopamine receptor [7] = target: T2, D(2) dopamine receptor; experiment: Antagonist activity at dopamine D2 receptor (unknown origin) relative to ketanserin; conditions: concentration not given here
Rattus norvegicus [8] = experiment: Inhibition of pre-pulse in ip dosed rat; format: functional, organism-based
Rattus norvegicus [9] = experiment: Toxicity in po dosed rat assessed as weight gain after 2 weeks relative to control; format: organism-based; conditions: in vivo, 336 h
Rattus norvegicus [10] = experiment: Toxicity in po dosed rat assessed as abnormal metabolic changes after 2 weeks relative to control; format: organism-based; conditions: in vivo, 336 h
Rattus norvegicus [11] = experiment: Toxicity in po dosed rat assessed as elevation in liver enzyme level after 2 weeks relative to control; format: organism-based; conditions: in vivo, 336 h
Rattus norvegicus [12] = experiment: Toxicity in po dosed rat assessed as change in renal parameter after 2 weeks relative to control; format: organism-based; conditions: in vivo, 336 h
[13] = target: T1, 5-hydroxytryptamine receptor 2A
Description: Binding affinity to serotonin 5-HT2A receptor (unknown origin) by PDSP assay

[14] = target: 5-hydroxytryptamine receptor 2B (Homo sapiens, UniProt P41595); experiment: Binding affinity to serotonin 5-HT2B receptor (unknown origin) by PDSP assay
[15] = target: 5-hydroxytryptamine receptor 4 (Homo sapiens, UniProt Q13639); experiment: Binding affinity to serotonin 5-HT4 receptor (unknown origin) by PDSP assay
D(2) dopamine receptor [16] = target: T2, D(2) dopamine receptor
Description: Binding affinity to dopamine D2 receptor (unknown origin) by PDSP assay

[17] = target: Alpha-2A adrenergic receptor (Homo sapiens, UniProt P08913)
Description: Binding affinity to adrenergic alpha2A receptor (unknown origin) by PDSP assay

[18] = target: Alpha-2C adrenergic receptor (Homo sapiens, UniProt P18825)
Description: Binding affinity to adrenergic alpha2C receptor (unknown origin) by PDSP assay

[19] = target: Muscarinic acetylcholine receptor M2 (Homo sapiens, UniProt P08172)
Description: Binding affinity to M2 receptor (unknown origin) by PDSP assay

[20] = target: Muscarinic acetylcholine receptor M4 (Homo sapiens, UniProt P08173)
Description: Binding affinity to M4 receptor (unknown origin) by PDSP assay

[21] = target: Muscarinic acetylcholine receptor M5 (Homo sapiens, UniProt P08912)
Description: Binding affinity to M5 receptor (unknown origin) by PDSP assay

[22] = target: 5-hydroxytryptamine receptor 1A (Homo sapiens, UniProt P08908)
Description: Binding affinity to serotonin 5-HT1A receptor (unknown origin) by PDSP assay

[23] = target: 5-hydroxytryptamine receptor 1B (Homo sapiens, UniProt P28222)
Description: Binding affinity to serotonin 5-HT1B receptor (unknown origin) by PDSP assay

[24] = target: 5-hydroxytryptamine receptor 1D (Homo sapiens, UniProt P28221)
Description: Binding affinity to serotonin 5-HT1D receptor (unknown origin) by PDSP assay

[25] = target: 5-hydroxytryptamine receptor 1E (Homo sapiens, UniProt P28566)
Description: Binding affinity to serotonin 5-HT1E receptor (unknown origin) by PDSP assay

[26] = target: 5-hydroxytryptamine receptor 2C (Homo sapiens, UniProt P28335)
Description: Binding affinity to serotonin 5-HT2C receptor (unknown origin) by PDSP assay

[27] = target: 5-hydroxytryptamine receptor 3A (Homo sapiens, UniProt P46098)
Description: Binding affinity to serotonin 5-HT3 receptor (unknown origin) by PDSP assay

[28] = target: 5-hydroxytryptamine receptor 6 (Homo sapiens, UniProt P50406)
Description: Binding affinity to serotonin 5-HT6 receptor (unknown origin) by PDSP assay

[29] = target: 5-hydroxytryptamine receptor 7 (Homo sapiens, UniProt P34969)
Description: Binding affinity to serotonin 5-HT7 receptor (unknown origin) by PDSP assay

D(1A) dopamine receptor = D(1A) dopamine receptor (Homo sapiens, UniProt P21728)
Description: Binding affinity to dopamine D1 receptor (unknown origin) by PDSP assay

D(3) dopamine receptor = D(3) dopamine receptor (Homo sapiens, UniProt P35462)
Description: Binding affinity to dopamine D3 receptor (unknown origin) by PDSP assay

[30] = target: Alpha-1A adrenergic receptor (Homo sapiens, UniProt P35348)
Description: Binding affinity to adrenergic alpha1A receptor (unknown origin) by PDSP assay

[31] = target: Alpha-1B adrenergic receptor (Homo sapiens, UniProt P35368)
Description: Binding affinity to adrenergic alpha1B receptor (unknown origin) by PDSP assay

[32] = target: 5-hydroxytryptamine receptor 5A (Homo sapiens, UniProt P47898)
Description: Binding affinity to serotonin 5-HT5A receptor (unknown origin) by PDSP assay

D(1B) dopamine receptor = D(1B) dopamine receptor (Homo sapiens, UniProt P21918)
Chain of D(1B) dopamine receptor (P21918 whole entry): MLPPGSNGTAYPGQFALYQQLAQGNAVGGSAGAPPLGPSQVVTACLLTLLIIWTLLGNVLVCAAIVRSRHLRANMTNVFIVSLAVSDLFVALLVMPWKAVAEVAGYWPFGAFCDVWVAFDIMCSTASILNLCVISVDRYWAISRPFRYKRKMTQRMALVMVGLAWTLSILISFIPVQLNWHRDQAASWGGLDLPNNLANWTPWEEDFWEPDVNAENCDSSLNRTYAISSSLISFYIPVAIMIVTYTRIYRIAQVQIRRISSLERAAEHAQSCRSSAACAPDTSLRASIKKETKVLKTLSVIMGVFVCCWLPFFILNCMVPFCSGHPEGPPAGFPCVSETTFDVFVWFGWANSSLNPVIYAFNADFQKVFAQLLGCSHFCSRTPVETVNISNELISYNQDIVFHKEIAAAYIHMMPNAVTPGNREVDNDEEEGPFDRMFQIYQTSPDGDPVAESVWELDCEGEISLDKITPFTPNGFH

Chain of 5-hydroxytryptamine receptor 5A (P47898 whole entry): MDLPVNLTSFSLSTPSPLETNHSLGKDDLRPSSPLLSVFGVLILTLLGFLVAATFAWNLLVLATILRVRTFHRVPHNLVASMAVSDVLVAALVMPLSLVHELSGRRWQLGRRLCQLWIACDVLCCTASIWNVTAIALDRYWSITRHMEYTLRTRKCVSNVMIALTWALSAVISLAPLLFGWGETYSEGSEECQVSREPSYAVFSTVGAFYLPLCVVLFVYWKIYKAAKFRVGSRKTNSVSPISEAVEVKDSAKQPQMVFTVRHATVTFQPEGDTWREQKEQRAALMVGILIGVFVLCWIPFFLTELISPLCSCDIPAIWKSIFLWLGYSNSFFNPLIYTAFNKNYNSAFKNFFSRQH
T2 sequence (P14416 whole entry): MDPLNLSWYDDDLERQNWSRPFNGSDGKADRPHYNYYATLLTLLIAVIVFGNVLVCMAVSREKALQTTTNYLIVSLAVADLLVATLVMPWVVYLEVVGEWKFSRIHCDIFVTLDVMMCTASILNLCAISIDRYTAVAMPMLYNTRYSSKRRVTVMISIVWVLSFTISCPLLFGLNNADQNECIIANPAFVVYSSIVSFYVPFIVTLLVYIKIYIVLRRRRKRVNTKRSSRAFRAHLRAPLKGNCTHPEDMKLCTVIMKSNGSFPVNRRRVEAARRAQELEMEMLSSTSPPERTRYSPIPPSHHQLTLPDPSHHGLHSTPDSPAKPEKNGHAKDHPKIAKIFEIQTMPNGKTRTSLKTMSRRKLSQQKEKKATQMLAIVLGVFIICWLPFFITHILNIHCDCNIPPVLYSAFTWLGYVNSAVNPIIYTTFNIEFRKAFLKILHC
T1 sequence (P28223 whole entry): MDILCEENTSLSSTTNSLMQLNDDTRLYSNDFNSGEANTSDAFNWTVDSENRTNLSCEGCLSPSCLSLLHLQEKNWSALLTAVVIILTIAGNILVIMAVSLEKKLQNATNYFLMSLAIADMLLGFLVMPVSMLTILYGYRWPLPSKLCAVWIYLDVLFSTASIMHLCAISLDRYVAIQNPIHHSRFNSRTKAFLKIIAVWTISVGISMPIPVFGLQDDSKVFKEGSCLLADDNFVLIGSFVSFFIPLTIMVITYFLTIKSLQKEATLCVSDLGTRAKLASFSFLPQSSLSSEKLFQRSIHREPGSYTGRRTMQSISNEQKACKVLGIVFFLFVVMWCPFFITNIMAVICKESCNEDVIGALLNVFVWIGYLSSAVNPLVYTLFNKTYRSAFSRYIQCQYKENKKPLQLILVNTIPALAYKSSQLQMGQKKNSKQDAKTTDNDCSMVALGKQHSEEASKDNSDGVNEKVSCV
Chain of 5-hydroxytryptamine receptor 1B (P28222 whole entry): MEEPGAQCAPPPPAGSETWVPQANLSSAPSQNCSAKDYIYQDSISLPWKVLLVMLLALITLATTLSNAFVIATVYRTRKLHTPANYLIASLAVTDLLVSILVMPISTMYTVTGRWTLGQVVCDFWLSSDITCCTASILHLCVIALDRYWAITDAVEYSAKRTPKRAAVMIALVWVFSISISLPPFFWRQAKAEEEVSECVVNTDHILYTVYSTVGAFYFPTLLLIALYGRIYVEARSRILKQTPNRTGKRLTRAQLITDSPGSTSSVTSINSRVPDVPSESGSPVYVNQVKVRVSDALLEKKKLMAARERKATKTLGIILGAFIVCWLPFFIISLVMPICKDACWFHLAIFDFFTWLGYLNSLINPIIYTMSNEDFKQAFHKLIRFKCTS
Chain of Alpha-1B adrenergic receptor (P35368 whole entry): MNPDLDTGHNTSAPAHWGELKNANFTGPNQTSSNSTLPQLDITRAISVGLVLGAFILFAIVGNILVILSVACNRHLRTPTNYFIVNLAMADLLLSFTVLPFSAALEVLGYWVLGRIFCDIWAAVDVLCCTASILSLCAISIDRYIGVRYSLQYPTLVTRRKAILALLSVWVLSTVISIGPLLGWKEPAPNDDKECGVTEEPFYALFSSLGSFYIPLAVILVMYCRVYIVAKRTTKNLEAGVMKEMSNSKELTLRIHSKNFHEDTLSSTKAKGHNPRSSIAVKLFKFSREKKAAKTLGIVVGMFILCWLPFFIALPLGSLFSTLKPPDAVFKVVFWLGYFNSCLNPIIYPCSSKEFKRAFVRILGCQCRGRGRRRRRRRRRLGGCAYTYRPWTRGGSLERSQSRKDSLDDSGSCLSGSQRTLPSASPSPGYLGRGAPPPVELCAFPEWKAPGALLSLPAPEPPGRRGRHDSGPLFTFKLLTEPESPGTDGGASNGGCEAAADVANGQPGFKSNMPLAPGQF
Chain of 5-hydroxytryptamine receptor 3A (P46098 whole entry): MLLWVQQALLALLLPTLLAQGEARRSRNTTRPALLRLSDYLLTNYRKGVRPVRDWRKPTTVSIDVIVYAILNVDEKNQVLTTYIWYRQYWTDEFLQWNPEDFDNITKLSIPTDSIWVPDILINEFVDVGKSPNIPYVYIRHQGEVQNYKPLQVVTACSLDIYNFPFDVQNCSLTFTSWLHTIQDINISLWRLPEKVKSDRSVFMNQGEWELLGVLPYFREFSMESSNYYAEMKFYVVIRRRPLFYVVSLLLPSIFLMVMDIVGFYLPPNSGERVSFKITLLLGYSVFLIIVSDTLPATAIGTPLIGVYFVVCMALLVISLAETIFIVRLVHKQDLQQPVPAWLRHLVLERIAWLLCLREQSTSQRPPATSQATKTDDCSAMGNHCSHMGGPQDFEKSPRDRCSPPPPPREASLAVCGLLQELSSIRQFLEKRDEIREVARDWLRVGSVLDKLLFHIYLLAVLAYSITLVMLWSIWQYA
Chain of 5-hydroxytryptamine receptor 1E (P28566 whole entry): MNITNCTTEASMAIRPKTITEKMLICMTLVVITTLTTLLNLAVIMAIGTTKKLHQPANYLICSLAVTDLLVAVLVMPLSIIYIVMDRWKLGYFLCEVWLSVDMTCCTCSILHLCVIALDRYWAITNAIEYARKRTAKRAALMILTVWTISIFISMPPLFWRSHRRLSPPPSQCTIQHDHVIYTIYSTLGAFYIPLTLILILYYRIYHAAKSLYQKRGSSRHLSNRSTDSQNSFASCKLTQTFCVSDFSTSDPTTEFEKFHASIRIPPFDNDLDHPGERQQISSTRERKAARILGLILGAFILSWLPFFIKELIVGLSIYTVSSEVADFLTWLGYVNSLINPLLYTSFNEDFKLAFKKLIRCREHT
Chain of Muscarinic acetylcholine receptor M3 (P20309 whole entry): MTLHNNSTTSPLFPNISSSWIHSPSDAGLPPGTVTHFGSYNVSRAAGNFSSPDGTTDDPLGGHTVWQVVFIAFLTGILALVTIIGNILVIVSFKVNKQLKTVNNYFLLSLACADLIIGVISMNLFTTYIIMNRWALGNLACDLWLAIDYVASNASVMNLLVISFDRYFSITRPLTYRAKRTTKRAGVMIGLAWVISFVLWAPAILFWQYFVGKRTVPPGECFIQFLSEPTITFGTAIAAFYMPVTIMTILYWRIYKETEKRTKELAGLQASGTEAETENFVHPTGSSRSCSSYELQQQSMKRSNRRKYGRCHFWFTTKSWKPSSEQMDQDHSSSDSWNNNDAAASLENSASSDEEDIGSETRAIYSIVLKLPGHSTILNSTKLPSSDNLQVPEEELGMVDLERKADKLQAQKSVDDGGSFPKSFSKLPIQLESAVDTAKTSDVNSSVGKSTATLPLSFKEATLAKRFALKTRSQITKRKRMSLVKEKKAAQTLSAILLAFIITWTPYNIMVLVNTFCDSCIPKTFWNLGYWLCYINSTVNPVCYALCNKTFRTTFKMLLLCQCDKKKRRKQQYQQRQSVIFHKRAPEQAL
Chain of 5-hydroxytryptamine receptor 2C (P28335 whole entry): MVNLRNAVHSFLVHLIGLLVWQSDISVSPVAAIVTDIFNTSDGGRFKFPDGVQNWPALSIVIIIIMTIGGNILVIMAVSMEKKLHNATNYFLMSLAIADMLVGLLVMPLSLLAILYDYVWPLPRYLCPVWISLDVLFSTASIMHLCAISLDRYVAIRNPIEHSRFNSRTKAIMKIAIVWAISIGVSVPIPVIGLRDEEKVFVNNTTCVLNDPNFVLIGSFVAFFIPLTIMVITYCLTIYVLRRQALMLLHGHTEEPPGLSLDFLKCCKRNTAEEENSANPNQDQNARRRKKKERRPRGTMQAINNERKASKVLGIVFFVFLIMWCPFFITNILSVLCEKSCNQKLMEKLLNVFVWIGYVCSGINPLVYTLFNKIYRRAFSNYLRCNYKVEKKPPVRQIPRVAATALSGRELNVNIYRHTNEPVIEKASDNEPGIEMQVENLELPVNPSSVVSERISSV
Chain of Histamine H2 receptor (P25021 whole entry): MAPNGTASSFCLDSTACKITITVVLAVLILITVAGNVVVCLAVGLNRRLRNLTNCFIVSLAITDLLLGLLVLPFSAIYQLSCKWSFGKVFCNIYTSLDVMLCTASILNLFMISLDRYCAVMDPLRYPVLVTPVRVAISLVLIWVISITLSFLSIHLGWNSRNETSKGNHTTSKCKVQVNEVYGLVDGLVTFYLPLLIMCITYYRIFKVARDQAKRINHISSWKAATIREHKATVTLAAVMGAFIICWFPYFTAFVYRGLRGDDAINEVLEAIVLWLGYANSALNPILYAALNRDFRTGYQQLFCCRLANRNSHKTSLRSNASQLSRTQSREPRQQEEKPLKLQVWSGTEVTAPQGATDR

Question: How did the Ki [1] turn out when `CN1CCC2C(C1)c1cccc3c1N2c1ccccc1CS3` (stereo not drawn) was run?
Answer: 0.794 µM

Question: What about the Ki (Histamine H2 receptor) of the same compound?
Answer: 0.0794 µM

Question: What about the Ki [2] of the same compound?
Answer: > 1 µM

Question: What about the Ki [3] of the same compound?
Answer: > 1 µM

Question: What about the inhibition [4] of the same compound?
Answer: 4%

Question: What about the inhibition (D(2) dopamine receptor [5]) of the same compound?
Answer: 0%

Question: What about the inhibition [6] of the same compound?
Answer: 101%

Question: What about the inhibition (D(2) dopamine receptor [7]) of the same compound?
Answer: 95%

Question: What about the inhibition (Rattus norvegicus [8]) of the same compound?
Answer: Active

Question: And the Activity (Rattus norvegicus [9])?
Answer: Non-toxic

Question: And the Activity (Rattus norvegicus [10])?
Answer: Non-toxic

Question: What about the Activity (Rattus norvegicus [11]) of the same compound?
Answer: Non-toxic

Question: What about the Activity (Rattus norvegicus [12]) of the same compound?
Answer: Non-toxic

Question: And the Ki [13]?
Answer: 0.002 µM

Question: And the Ki [14]?
Answer: 0.00501 µM

Question: What about the Ki [15] of the same compound?
Answer: > 1 µM

Question: And the Ki (D(2) dopamine receptor [16])?
Answer: 0.126 µM

Question: What about the Ki [17] of the same compound?
Answer: 0.0631 µM

Question: And the Ki [18]?
Answer: 0.0316 µM

Question: And the Ki [19]?
Answer: > 1 µM

Question: And the Ki [20]?
Answer: > 1 µM

Question: What about the Ki [21] of the same compound?
Answer: 0.794 µM

Question: What about the Ki [22] of the same compound?
Answer: 0.0398 µM

Question: What about the Ki [23] of the same compound?
Answer: 0.316 µM

Question: What about the Ki [24] of the same compound?
Answer: 0.0631 µM

Question: What about the Ki [25] of the same compound?
Answer: 2.51 µM

Question: And the Ki [26]?
Answer: 0.00794 µM

Question: And the Ki [27]?
Answer: 0.631 µM

Question: What about the Ki [28] of the same compound?
Answer: 0.0158 µM

Question: And the Ki [29]?
Answer: 0.0794 µM

Question: What about the Ki (D(1A) dopamine receptor) of the same compound?
Answer: 0.0251 µM

Question: And the Ki (D(3) dopamine receptor)?
Answer: 0.0316 µM

Question: What about the Ki [30] of the same compound?
Answer: 0.501 µM

Question: What about the Ki [31] of the same compound?
Answer: > 1 µM

Question: What does the source list for `Cc1cc2c(s1)Nc1ccccc1N=C2N1CCN(C)CC1` [OLANZAPINE]?
Answer: Ki [27]: 1 µM; Ki [32]: > 1 µM; Ki (D(1B) dopamine receptor): 0.1 µM

Question: `CN1CCN(C2=Nc3cc(Cl)ccc3Nc3ccccc32)CC1` [CLOZAPINE] was tested. Which Ki [32] did it give?
Answer: > 1 µM

Question: Which results are given for `OCCOCCN1CCN(C2=Nc3ccccc3Sc3ccccc32)CC1` [QUETIAPINE]?
Answer: Ki [23]: > 1 µM; Ki [25]: > 1 µM; Ki [32]: > 1 µM; Ki (D(1B) dopamine receptor): > 1 µM; Ki [31]: 0.1 µM
